Experiments:
water solubility = format: physicochemical
mice = conditions: administered to mice; see U.S. Ser. Nos. 11/433,057 and 11/433,626; cited from earlier work

For `O=C(c1ccc(-c2cccc(Cl)c2)cc1)C1CCN(c2ncccn2)CC1` [(3′-chlorobiphenyl-4-yl)(1-(pyrimidin-2-yl)piperidin-4-yl)methanone], the water solubility (water solubility) is given as “poorly water soluble” and the “effect on learning and memory” value (mice) is given as “increase learning and memory”.

Source: US20090005407A1, “PARTICULATE (3'-CHLOROBIPHENYL-4-YL)(1-(PYRIMIDIN-2-YL)PIPERIDIN-4-YL)METHANONE AND METHODS OF ITS USE” (priority 2007, published 2009)
